Article PMC9095466 (Nature, 2022)
“And” between values parts separate entries of the source, which are not always exact repeats. Identical values can stand only once. Like-named read-outs stand apart in the source and are kept apart here.

Assays:
human thrombin = biological target: T1, human thrombin (Homo sapiens, UniProt P00734); experiment: Protease selectivity, Ki on protease; format: biochemical
T1 construct: purchased MilliporeSigma

[1] = biological target: T2, Recombinant human matriptase (Homo sapiens, UniProt Q9Y5Y6); experiment: Protease selectivity, Ki on recombinant protease; format: biochemical; conditions: single experiments N1-N3; Figure 1D; read-out: Individual Ki, Matriptase
T2 construct: made in house
T2 sequence (Q9Y5Y6 1-855): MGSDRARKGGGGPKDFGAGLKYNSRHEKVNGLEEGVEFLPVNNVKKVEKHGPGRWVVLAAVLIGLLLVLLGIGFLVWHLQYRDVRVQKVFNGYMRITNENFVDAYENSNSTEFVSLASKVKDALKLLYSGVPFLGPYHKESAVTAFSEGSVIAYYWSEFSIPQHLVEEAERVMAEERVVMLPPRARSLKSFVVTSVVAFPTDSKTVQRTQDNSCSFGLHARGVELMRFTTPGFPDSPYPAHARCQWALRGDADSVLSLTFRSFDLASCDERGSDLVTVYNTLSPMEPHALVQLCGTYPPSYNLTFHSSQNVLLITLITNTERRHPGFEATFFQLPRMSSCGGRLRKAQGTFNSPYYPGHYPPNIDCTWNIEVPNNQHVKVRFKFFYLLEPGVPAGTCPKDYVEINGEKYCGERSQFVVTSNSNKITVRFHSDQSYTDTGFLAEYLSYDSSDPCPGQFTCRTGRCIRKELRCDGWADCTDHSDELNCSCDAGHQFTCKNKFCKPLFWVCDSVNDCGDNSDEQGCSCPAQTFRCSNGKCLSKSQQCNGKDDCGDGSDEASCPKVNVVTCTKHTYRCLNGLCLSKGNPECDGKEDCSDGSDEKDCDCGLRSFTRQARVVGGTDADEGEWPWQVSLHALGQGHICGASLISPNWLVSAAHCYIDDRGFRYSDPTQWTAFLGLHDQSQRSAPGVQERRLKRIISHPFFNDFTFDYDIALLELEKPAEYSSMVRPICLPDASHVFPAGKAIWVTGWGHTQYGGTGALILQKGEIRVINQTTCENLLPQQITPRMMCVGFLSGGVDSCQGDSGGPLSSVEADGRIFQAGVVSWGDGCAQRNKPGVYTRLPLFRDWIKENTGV

Recombinant human DESC1 = biological target: T3, Recombinant human DESC1 (Homo sapiens, UniProt Q9UL52); experiment: Protease selectivity, Ki on recombinant protease; format: biochemical
T3 construct: made in house
T3 sequence (Q9UL52 1-423): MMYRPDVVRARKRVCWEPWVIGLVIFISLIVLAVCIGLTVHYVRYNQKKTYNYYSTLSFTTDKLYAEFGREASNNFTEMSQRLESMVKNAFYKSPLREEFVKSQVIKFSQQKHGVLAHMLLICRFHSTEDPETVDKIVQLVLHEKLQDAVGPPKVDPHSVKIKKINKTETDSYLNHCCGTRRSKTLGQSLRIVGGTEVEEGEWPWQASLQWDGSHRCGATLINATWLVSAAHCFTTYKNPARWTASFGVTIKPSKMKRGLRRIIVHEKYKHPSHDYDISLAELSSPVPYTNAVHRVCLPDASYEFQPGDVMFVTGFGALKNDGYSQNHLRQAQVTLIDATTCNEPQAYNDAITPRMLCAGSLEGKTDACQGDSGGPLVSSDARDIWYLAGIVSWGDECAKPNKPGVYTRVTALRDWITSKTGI

Recombinant human furin = biological target: T4, Recombinant human furin (Homo sapiens, UniProt P09958); experiment: Protease selectivity, Ki on recombinant protease; format: biochemical
T4 construct: purchased Bio-Techne
T4 sequence (P09958 108-794): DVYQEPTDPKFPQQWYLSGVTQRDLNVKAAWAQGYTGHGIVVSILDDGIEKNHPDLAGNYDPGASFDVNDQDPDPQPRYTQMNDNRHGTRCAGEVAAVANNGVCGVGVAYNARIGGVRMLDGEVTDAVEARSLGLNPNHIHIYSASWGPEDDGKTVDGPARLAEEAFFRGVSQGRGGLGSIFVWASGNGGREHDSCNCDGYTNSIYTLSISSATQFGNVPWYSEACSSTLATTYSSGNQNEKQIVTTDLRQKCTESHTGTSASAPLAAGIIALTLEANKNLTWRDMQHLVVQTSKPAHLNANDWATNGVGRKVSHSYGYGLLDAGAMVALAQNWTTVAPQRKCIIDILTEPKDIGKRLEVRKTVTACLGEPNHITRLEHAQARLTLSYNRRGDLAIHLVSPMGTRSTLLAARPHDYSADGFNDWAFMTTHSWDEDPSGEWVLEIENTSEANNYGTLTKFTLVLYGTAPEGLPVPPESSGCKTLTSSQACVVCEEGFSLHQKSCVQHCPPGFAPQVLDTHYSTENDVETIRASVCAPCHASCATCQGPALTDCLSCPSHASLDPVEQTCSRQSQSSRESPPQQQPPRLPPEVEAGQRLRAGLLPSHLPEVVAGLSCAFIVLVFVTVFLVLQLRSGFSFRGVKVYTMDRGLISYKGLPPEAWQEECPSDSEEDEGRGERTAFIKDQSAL

Recombinant human hepsin = biological target: T5, Recombinant human hepsin (Homo sapiens, UniProt P05981); experiment: Protease selectivity, Ki on recombinant protease; format: biochemical; conditions: single experiments N1-N3; Figure 1D; read-out: Individual Ki, Hepsin
T5 construct: made in house
T5 sequence (P05981 whole entry): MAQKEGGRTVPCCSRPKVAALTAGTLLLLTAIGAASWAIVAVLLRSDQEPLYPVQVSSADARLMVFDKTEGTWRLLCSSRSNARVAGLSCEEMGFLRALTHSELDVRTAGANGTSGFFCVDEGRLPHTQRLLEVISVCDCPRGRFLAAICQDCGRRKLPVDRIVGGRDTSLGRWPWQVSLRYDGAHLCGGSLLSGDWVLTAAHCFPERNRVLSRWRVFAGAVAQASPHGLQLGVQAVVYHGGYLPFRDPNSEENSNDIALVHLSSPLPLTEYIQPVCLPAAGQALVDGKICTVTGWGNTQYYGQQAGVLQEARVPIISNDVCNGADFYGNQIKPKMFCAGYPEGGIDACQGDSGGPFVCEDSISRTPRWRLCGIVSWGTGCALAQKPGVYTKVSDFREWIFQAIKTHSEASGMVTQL

human cathepsin L = biological target: T6, human cathepsin L (Homo sapiens, UniProt P07711); experiment: Protease selectivity, Ki on protease; format: biochemical
T6 construct: purchased Bio-Techne
T6 sequence (P07711 114-333): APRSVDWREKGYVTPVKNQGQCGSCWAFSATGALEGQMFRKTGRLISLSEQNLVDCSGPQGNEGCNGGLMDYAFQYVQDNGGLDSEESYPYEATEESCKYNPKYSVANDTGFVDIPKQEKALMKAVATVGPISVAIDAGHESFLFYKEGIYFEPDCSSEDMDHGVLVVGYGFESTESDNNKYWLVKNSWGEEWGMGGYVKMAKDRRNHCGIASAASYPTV

[2] = Cytotoxicity CC50 in Calu-3 lung epithelial cells; format: cell-based, human; conditions: human; for viability at 24 h, 1000 µM: Log [inhibitor] -3.00; for viability at 24 h, 300 µM: Log [inhibitor] -3.52; for viability at 24 h, 100 µM: Log [inhibitor] -4.00; for viability at 24 h, 30 µM: Log [inhibitor] -4.52; for viability at 24 h, 10 µM: Log [inhibitor] -5.00; for viability at 24 h, 3 µM: Log [inhibitor] -5.52; for viability at 24 h, 0.3 µM: Log [inhibitor] -6.52; for viability at 24 h, 0.03 µM: Log [inhibitor] -7.52; for viability at 24 h, 0.003 µM: Log [inhibitor] -8.52
Calu-3 cells = experiment: Cytotoxicity CC50 in Calu-3 lung epithelial cells; format: cell-based, human; conditions: single replicates
[3] = system: SARS-CoV-2 lineage B strain (VIDO); experiment: microbe, parasite or virus in culture; format: cell-based
human TMPRSS2 = human TMPRSS2 (Homo sapiens, UniProt O15393); experiment: cell-based
Sequence of human TMPRSS2 (O15393 whole entry): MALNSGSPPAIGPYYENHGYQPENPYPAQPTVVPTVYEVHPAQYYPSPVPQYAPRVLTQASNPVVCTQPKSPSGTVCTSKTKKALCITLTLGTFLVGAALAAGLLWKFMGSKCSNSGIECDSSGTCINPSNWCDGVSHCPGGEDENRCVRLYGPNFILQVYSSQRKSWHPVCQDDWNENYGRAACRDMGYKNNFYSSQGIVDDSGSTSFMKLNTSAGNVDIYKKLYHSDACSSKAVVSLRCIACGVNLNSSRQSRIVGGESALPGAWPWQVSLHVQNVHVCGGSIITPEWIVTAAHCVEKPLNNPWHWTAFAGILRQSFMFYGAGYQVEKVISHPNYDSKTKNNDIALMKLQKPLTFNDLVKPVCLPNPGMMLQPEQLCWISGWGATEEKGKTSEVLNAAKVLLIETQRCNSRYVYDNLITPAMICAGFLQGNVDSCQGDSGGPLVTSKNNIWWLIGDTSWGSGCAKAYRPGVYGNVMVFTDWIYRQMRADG

[4] = single experiments N1-N3, Figure 1D, read-out: Individual Ki, Desc1
[5] = single experiments N1-N4, Figure 1D, read-out: Individual Ki, Cathepsin L
[6] = Calu-3 cells, read-out: % of Viability, Average (n=2)
[7] = Calu-3 cells, single replicates, read-out: % of Viability

N=C(N)NCCCCC(=O)N[C@@H](CCC(N)=O)C(=O)N[C@@H](Cc1ccccc1)C(=O)N[C@@H](CCCNC(=N)N)C(=O)c1nc2ccccc2s1 [Compound N-00130]
Ki (human thrombin; single experiments N1-N3, Figure 1D, read-out: Individual Ki, Thrombin): 7.56 µM and > 10 µM and 7.14 µM
Ki [1]: 0.154 nM and 0.0954 nM and 0.153 nM
Ki (Recombinant human DESC1; [4]): 0.0164 µM and 0.0379 µM and 0.0305 µM
Ki (Recombinant human furin; single experiments N1-N3, Figure 1D, read-out: Individual Ki, Furin): > 10 µM
Ki (Recombinant human hepsin): 0.000221 µM and 0.000323 µM and 0.000606 µM
Ki (human cathepsin L; [5]): > 10 µM

CS(=O)(=O)N[C@@H](CCC(N)=O)C(=O)N[C@@H](Cc1ccccc1)C(=O)N[C@@H](CCCNC(=N)N)C(=O)c1nc2ccccc2s1 [Compound N-00385]
Ki (Recombinant human DESC1; [4]): 0.0253 µM and 0.0169 µM and 0.0346 µM
Ki (human cathepsin L; [5]): 9.7 µM and 9.06 µM and 3.83 µM and 2.57 µM

CS(=O)(=O)N[C@@H](CCC(N)=O)C(=O)N[C@@H](Cc1ccccc1)C(=O)N[C@@H](CCCNC(=N)N)C(=O)c1nc2ccccc2s1 [Compound N-385]
viability at 24 h, 3000 µM ([2]; Calu-3 cells, Log [inhibitor] -2.52, read-out: % of Viability, Average (n=2)): 52.5%
viability at 24 h, 1000 µM [2, 6]: 80.5%
viability at 24 h, 1000 µM [2, 7]: 74%
viability at 24 h, 300 µM [2, 6]: 92%
viability at 24 h, 300 µM [2, 7]: 90%
viability at 24 h, 100 µM [2, 6]: 91%
viability at 24 h, 100 µM [2, 7]: 94%
viability at 24 h, 30 µM [2, 6]: 87%
viability at 24 h, 30 µM [2, 7]: 90%
viability at 24 h, 10 µM [2, 6]: 101%
viability at 24 h, 10 µM [2, 7]: 103%
viability at 24 h, 3 µM [2, 6]: 110%
viability at 24 h, 3 µM [2, 7]: 110%
viability at 24 h, 0.3 µM [2, 6]: 111%
viability at 24 h, 0.3 µM [2, 7]: 113%
viability at 24 h, 0.03 µM [2, 6]: 110%
viability at 24 h, 0.03 µM [2, 7]: 116%
viability at 24 h, 0.003 µM [2, 6]: 117%
viability at 24 h, 0.003 µM [2, 7]: 119%
CC50 at 24 h ([2]; Calu-3 cells, unit not given for CC50, read-out: CC50): 3470 µM
% of Viability (Calu-3 cells; Log [inhibitor] -2.52): 42% and 63%
% of Viability (Calu-3 cells; Log [inhibitor] -4.00): 88%
% of Viability (Calu-3 cells; Log [inhibitor] -4.52): 84%
% of Viability (Calu-3 cells; Log [inhibitor] -5.00): 99%
% of Viability (Calu-3 cells; Log [inhibitor] -6.52): 109%
% of Viability (Calu-3 cells; Log [inhibitor] -7.52): 105%
% of Viability (Calu-3 cells; Log [inhibitor] -8.52): 115%

CC(=O)NC(CCC(N)=O)C(=O)NC(Cc1ccccc1)C(=O)NC(CCCNC(=N)N)C(=O)c1nc2ccccc2s1 (centres unmarked) [Compound N-0386, Ac-QFR-kbt]
Nucleocapsid ([3]; Figure 2a, two replicates, DMSO control about 91-94): 0.1229 and 1.4208
dsRNA ([3]; Figure 2a, two replicates, DMSO control about 93-95): 0.2037 and 0
EC50 ([3]; Severe acute respiratory syndrome coronavirus 2, Calu-3, read-out: SARS-CoV-2 VIDO Nucleocapsid EC50 ± SE): 0.0023 ± 0.0017 µM
inhibition at 0.1 µM ([3]; Severe acute respiratory syndrome coronavirus 2, Calu-3, read-out: inhibition of SARS-CoV-2 infection): > 99%
Figure 2b dose-response, Mean ([3]; log [C] (nM) 0.20412): 63.391
Figure 2b dose-response, Mean ([3]; log [C] (nM) 0.90309): 26.1724
Figure 2b dose-response, Mean ([3]; log [C] (nM) 1.60206): 7.727
Figure 2b dose-response, Mean ([3]; log [C] (nM) 2.30103): 6.997
Figure 2b dose-response, Mean ([3]; log [C] (nM) 3): 2.833
Figure 2b dose-response, Mean ([3]; log [C] (nM) -0.49485): 81.0636
Figure 2b dose-response, Mean ([3]; log [C] (nM) -1.19382): 95.046
Ki (human thrombin; mean ± s.d., max concentration 10 µM, read-out: Ki Thrombin): > 10 µM
Ki (Recombinant human DESC1; mean ± s.d., max concentration 10 µM, read-out: Ki DESC1): 0.0091 ± 0.0019 µM
Ki (Recombinant human furin; mean ± s.d., max concentration 10 µM, read-out: Ki Furin): > 10 µM
CC50 at 24 h ([2]; Calu-3 lung epithelial cells, n = 2, read-out: CC50 in Calu-3 cells): 1880 µM
Ki (human cathepsin L; mean ± s.d., max concentration 10 µM, read-out: Ki Cathepsin L): 7.72 ± 0.142 µM
TMPRSS2 activity (%) (human TMPRSS2; Figure 1B, single experiments N1-N3): 22.2147% and 27.837% and 33.2674%
inhibition at 0.01 µM (human TMPRSS2; Vero C1008, 10 nM compound, 24 h, vs untreated/vehicle TMPRSS2-expressing Vero E6 cells, read-out: inhibition of TMPRSS2 activity (reduction of substrate proteolysis)): 73%
